≈ marks a conversion by molar mass, not a printed value.
How the values were obtained:
Assay type in all cases: functional
Conditions in all cases: time 16-20 hrs
Bacillus subtilis = assay: Antibacterial activity against Bacillus subtilis E168 assessed as inhibition of bacterial growth incubated for 16 to 20 hrs by Mueller-Hinton broth based two-fold serial dilution method
Staphylococcus aureus = assay: Antibacterial activity against Staphylococcus aureus assessed as inhibition of bacterial growth incubated for 16 to 20 hrs by Mueller-Hinton broth based two-fold serial dilution method
Escherichia coli = assay: Antibacterial activity against TolC-deficient Escherichia coli assessed as inhibition of bacterial growth incubated for 16 to 20 hrs by Mueller-Hinton broth based two-fold serial dilution method

SMILES	MIC (Bacillus subtilis) [µg/mL]	MIC (Staphylococcus aureus) [µg/mL]	MIC (Escherichia coli) [µg/mL]
CC[C@]1(O)CC(=O)c2c(cc3cccc(O)c3c2O)[C@H]1C(C)=O	32 (≈ 102 µM)	2 (≈ 6.36 µM)	32 (≈ 102 µM)
NC[C@H]1O[C@H](O[C@H]2[C@H](O)[C@@H](O[C@H]3O[C@H](CO)[C@@H](O)[C@H](N)[C@H]3O)[C@H](N)C[C@@H]2N)[C@H](O)[C@@H](O)[C@@H]1O [KANAMYCIN]	2 (≈ 4.13 µM)	1 (≈ 2.06 µM)	2 (≈ 4.13 µM)
